From the supplement of paper PMC10307832

What was measured:
Test in all cases: relative viability (nuclei count vs DMSO), 5 days (fraction); higher = more cells survive
ABC-1 = tested on: ABC-1
Outline: (§1)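 Lung cancer cell lines in 1536-well plates were dosed by pin tool the day after seeding, either with one drug alone or with a fixed anchor-drug dose plus five library-drug doses (not always all listed) in √10 steps. After 5 days, cells were fixed and their nuclei stained in one step (final 0.05% Triton X-100, 1% formaldehyde, 1 ug/ml Hoechst), then counted on 4× images. Relative viability is the nuclei count in treated wells divided by that in vehicle wells. Values are medians of duplicate plates.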

COR-L23 = tested on: COR-L23
Outline: as §1

EPLC-272H = tested on: EPLC-272H
Outline: as §1

HARA = tested on: HARA
Outline: as §1

HCC-15 = tested on: HCC-15
Outline: as §1

HCC-44 = tested on: HCC-44
Outline: as §1

HOP-62 = tested on: HOP-62
Outline: as §1

LC-2-ad = tested on: LC-2-ad
Outline: as §1

LU99A = tested on: LU99A
Outline: as §1

NCI-H1355 = tested on: NCI-H1355
Outline: as §1

NCI-H1651 = tested on: NCI-H1651
Outline: as §1

NCI-H1915 = tested on: NCI-H1915
Outline: as §1

NCI-H1993 = tested on: NCI-H1993
Outline: as §1

NCI-H2023 = tested on: NCI-H2023
Outline: as §1

NCI-H2085 = tested on: NCI-H2085
Outline: as §1

NCI-H2126 = tested on: NCI-H2126
Outline: as §1

NCI-H2347 = tested on: NCI-H2347
Outline: as §1

NCI-H650 = tested on: NCI-H650
Outline: as §1

NCI-H838 = tested on: NCI-H838
Outline: as §1

PC-14 = tested on: PC-14
Outline: as §1

SW 1573 = tested on: SW 1573
Outline: as §1

UMC-11 = tested on: UMC-11
Outline: as §1

CC(=O)O[C@@]12CO[C@@H]1C[C@H](O)[C@@]1(C)C(=O)[C@H](O)C3=C(C)[C@@H](OC(=O)[C@H](O)[C@@H](NC(=O)OC(C)(C)C)c4ccccc4)C[C@@](O)([C@@H](OC(=O)c4ccccc4)[C@H]21)C3(C)C [Docetaxel] + CS(=O)(=O)CCNCc1ccc(-c2ccc3ncnc(Nc4ccc(OCc5cccc(F)c5)c(Cl)c4)c3c2)o1 [Lapatinib] (partner 2 µM)
relative viability (ABC-1; first compound 0.0002 µM): 1.21 | relative viability (ABC-1; first compound 0.000632 µM): 1.12 | relative viability (ABC-1; first compound 0.002 µM): 1.14 | relative viability (ABC-1; first compound 0.006325 µM): 0.797 | relative viability (ABC-1; first compound 0.02 µM): 0.577 | relative viability (COR-L23; first compound 0.0002 µM): 0.993 | relative viability (COR-L23; first compound 0.000632 µM): 0.843 | relative viability (COR-L23; first compound 0.002 µM): 0.625 | relative viability (COR-L23; first compound 0.006325 µM): 0.14 | relative viability (COR-L23; first compound 0.02 µM): 0.107 | relative viability (EPLC-272H; first compound 0.0002 µM): 1.04 | relative viability (EPLC-272H; first compound 0.000632 µM): 0.76 | relative viability (EPLC-272H; first compound 0.002 µM): 0.199 | relative viability (EPLC-272H; first compound 0.006325 µM): 0.0933 | relative viability (EPLC-272H; first compound 0.02 µM): 0.114 | relative viability (HARA; first compound 0.0002 µM): 0.517 | relative viability (HARA; first compound 0.000632 µM): 0.302 | relative viability (HARA; first compound 0.006325 µM): 0.0686 | relative viability (HARA; first compound 0.02 µM): 0.0783 | relative viability (HCC-15; first compound 0.0002 µM): 0.681 | relative viability (HCC-15; first compound 0.000632 µM): 0.372 | relative viability (HCC-15; first compound 0.002 µM): 0.208 | relative viability (HCC-15; first compound 0.006325 µM): 0.195 | relative viability (HCC-15; first compound 0.02 µM): 0.137 | relative viability (HCC-44; first compound 0.0002 µM): 0.936 | relative viability (HCC-44; first compound 0.000632 µM): 0.961 | relative viability (HCC-44; first compound 0.002 µM): 0.621 | relative viability (HCC-44; first compound 0.006325 µM): 0.22 | relative viability (HCC-44; first compound 0.02 µM): 0.115 | relative viability (HOP-62; first compound 0.0002 µM): 0.828 | relative viability (HOP-62; first compound 0.000632 µM): 0.448 | relative viability (HOP-62; first compound 0.02 µM): 0.112 | relative viability (LC-2-ad; first compound 0.0002 µM): 0.538 | relative viability (LC-2-ad; first compound 0.000632 µM): 0.296 | relative viability (LC-2-ad; first compound 0.002 µM): 0.14 | relative viability (LC-2-ad; first compound 0.006325 µM): 0.112 | relative viability (LC-2-ad; first compound 0.02 µM): 0.0888 | relative viability (LU99A; first compound 0.0002 µM): 0.799 | relative viability (LU99A; first compound 0.000632 µM): 0.424 | relative viability (LU99A; first compound 0.002 µM): 0.423 | relative viability (LU99A; first compound 0.006325 µM): 0.255 | relative viability (LU99A; first compound 0.02 µM): 0.188 | relative viability (NCI-H1355; first compound 0.0002 µM): 0.933 | relative viability (NCI-H1355; first compound 0.000632 µM): 0.975 | relative viability (NCI-H1355; first compound 0.002 µM): 0.446 | relative viability (NCI-H1355; first compound 0.006325 µM): 0.289 | relative viability (NCI-H1355; first compound 0.02 µM): 0.21 | relative viability (NCI-H1651; first compound 0.0002 µM): 0.724 | relative viability (NCI-H1651; first compound 0.000632 µM): 0.496 | relative viability (NCI-H1651; first compound 0.002 µM): 0.161 | relative viability (NCI-H1651; first compound 0.006325 µM): 0.11 | relative viability (NCI-H1651; first compound 0.02 µM): 0.101 | relative viability (NCI-H1915; first compound 0.0002 µM): 0.937 | relative viability (NCI-H1915; first compound 0.000632 µM): 0.665 | relative viability (NCI-H1915; first compound 0.002 µM): 0.351 | relative viability (NCI-H1915; first compound 0.006325 µM): 0.146 | relative viability (NCI-H1915; first compound 0.02 µM): 0.118 | relative viability (NCI-H1993; first compound 0.0002 µM): 0.796 | relative viability (NCI-H1993; first compound 0.000632 µM): 0.824 | relative viability (NCI-H1993; first compound 0.002 µM): 0.627 | relative viability (NCI-H1993; first compound 0.006325 µM): 0.534 | relative viability (NCI-H1993; first compound 0.02 µM): 0.451 | relative viability (NCI-H2023; first compound 0.0002 µM): 0.722 | relative viability (NCI-H2023; first compound 0.000632 µM): 0.408 | relative viability (NCI-H2023; first compound 0.002 µM): 0.135 | relative viability (NCI-H2023; first compound 0.006325 µM): 0.1 | relative viability (NCI-H2023; first compound 0.02 µM): 0.0578 | relative viability (NCI-H2085; first compound 0.0002 µM): 0.787 | relative viability (NCI-H2085; first compound 0.000632 µM): 0.71 | relative viability (NCI-H2085; first compound 0.002 µM): 0.507 | relative viability (NCI-H2085; first compound 0.006325 µM): 0.462 | relative viability (NCI-H2085; first compound 0.02 µM): 0.342 | relative viability (NCI-H2126; first compound 0.0002 µM): 0.738 | relative viability (NCI-H2126; first compound 0.000632 µM): 0.683 | relative viability (NCI-H2126; first compound 0.002 µM): 0.562 | relative viability (NCI-H2126; first compound 0.006325 µM): 0.395 | relative viability (NCI-H2126; first compound 0.02 µM): 0.253 | relative viability (NCI-H2347; first compound 0.0002 µM): 1.01 | relative viability (NCI-H2347; first compound 0.000632 µM): 1.05 | relative viability (NCI-H2347; first compound 0.002 µM): 0.839 | relative viability (NCI-H2347; first compound 0.006325 µM): 0.512 | relative viability (NCI-H2347; first compound 0.02 µM): 0.479 | relative viability (NCI-H650; first compound 0.0002 µM): 0.554 | relative viability (NCI-H650; first compound 0.000632 µM): 0.384 | relative viability (NCI-H650; first compound 0.002 µM): 0.307 | relative viability (NCI-H650; first compound 0.02 µM): 0.168 | relative viability (NCI-H838; first compound 0.0002 µM): 0.963 | relative viability (NCI-H838; first compound 0.000632 µM): 0.63 | relative viability (NCI-H838; first compound 0.002 µM): 0.259 | relative viability (NCI-H838; first compound 0.006325 µM): 0.15 | relative viability (NCI-H838; first compound 0.02 µM): 0.106 | relative viability (PC-14; first compound 0.0002 µM): 0.272 | relative viability (PC-14; first compound 0.000632 µM): 0.417 | relative viability (PC-14; first compound 0.002 µM): 0.235 | relative viability (PC-14; first compound 0.006325 µM): 0.0958 | relative viability (PC-14; first compound 0.02 µM): 0.0629 | relative viability (SW 1573; first compound 0.0002 µM): 1.06 | relative viability (SW 1573; first compound 0.000632 µM): 0.946 | relative viability (SW 1573; first compound 0.002 µM): 0.321 | relative viability (SW 1573; first compound 0.006325 µM): 0.256 | relative viability (SW 1573; first compound 0.02 µM): 0.192 | relative viability (UMC-11; first compound 0.0002 µM): 0.8 | relative viability (UMC-11; first compound 0.000632 µM): 0.831 | relative viability (UMC-11; first compound 0.002 µM): 0.249 | relative viability (UMC-11; first compound 0.006325 µM): 0.26 | relative viability (UMC-11; first compound 0.02 µM): 0.148
